Experimental data published in patent publication US20150031674A1, “SERINE/THREONINE KINASE INHIBITORS” (GENENTECH, INC., priority 2013, published 2015).

Target: human recombinant PAK1-KD protein (Homo sapiens, UniProt Q13153)
Assay: PAK1-KD (Kinase Domain) IC50 Zlyte Assay (FRET peptide substrate phosphorylation)
Settings: Z'-LYTE, Biological Example 1

Chain of human recombinant PAK1-KD protein (Q13153 270-521 limits assumed): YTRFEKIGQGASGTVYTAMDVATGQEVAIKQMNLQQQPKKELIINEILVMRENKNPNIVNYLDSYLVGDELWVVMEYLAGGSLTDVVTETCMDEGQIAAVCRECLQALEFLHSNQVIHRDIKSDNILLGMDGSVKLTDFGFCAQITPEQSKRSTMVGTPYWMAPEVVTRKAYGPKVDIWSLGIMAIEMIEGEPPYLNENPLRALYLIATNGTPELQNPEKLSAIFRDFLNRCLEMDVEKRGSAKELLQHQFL

Row | SMILES | Ki
1 | Cc1cccc(-c2ccc(-c3cc4cnc(NC5COC5)nc4n(C[C@H]4CC[C@H](N)CC4)c3=O)c(Cl)c2)n1 [Example I-33, 8-(((1r,4r)-4-aminocyclohexyl)methyl)-6-(2-chloro-4-(6-methylpyridin-2-yl)phenyl)-2-(oxetan-3-ylamino)pyrido[2,3-d]pyrimidin-7(8H)-one] | 0.5 nM
2 | CCNc1ncc2cc(-c3ccc(-c4cccc(C)n4)cc3Cl)c(=O)n(CC(=O)N3CCNCC3)c2n1 [Example I-34, 6-[2-Chloro-4-(6-methyl-2-pyridyl)phenyl]-2-(ethylamino)-8-(2-oxo-2-piperazin-1-yl-ethyl)pyrido[2,3-d]pyrimidin-7-one] | 4 nM
3 | Cc1cccc(-c2ccc(-c3cc4cnc(NC(C)C)nc4n(CC(=O)N4CCNCC4)c3=O)c(Cl)c2)n1 [Example I-35, 6-[2-Chloro-4-(6-methyl-2-pyridyl)phenyl]-2-(isopropylamino)-8-(2-oxo-2-piperazin-1-yl-ethyl)pyrido[2,3-d]pyrimidin-7-one] | 4.2 nM
4 | CCNc1ncc2cc(-c3ccc(-c4cncc(C)n4)cc3Cl)c(=O)n(CCCCO)c2n1 [Example I-36, 6-[2-Chloro-4-(6-methylpyrazin-2-yl)phenyl]-2-(ethylamino)-8-(4-hydroxybutyl)pyrido[2,3-d]pyrimidin-7-one] | 71.8 nM
5 | CNc1ncc2cc(-c3ccc(-c4cncc(C)n4)cc3Cl)c(=O)n(CCC3OCC(N)CO3)c2n1 (centres unmarked) [Example I-37, 8-[2-(5-amino-1,3-dioxan-2-yl)ethyl]-6-[2-chloro-4-(6-methylpyrazin-2-yl)phenyl]-2-(methylamino)pyrido[2,3-d]pyrimidin-7-one] | 7.5 nM
6 | CCNc1ncc2cc(-c3ccc(-c4cncc(C)n4)cc3Cl)c(=O)n(CC3CCN(CCO)CC3)c2n1 [Example I-39, 6-(2-Chloro-4-(6-methylpyrazin-2-yl)phenyl)-2-(ethylamino)-8-((1-(2-hydroxyethyl)piperidin-4-yl)methyl)pyrido[2,3-d]pyrimidin-7(8H)-one] | 40 nM
7 | Cc1cncc(-c2ccc(-c3cc4cnc(NC5(C)COC5)nc4n(CCCC(N)=O)c3=O)c(Cl)c2)n1 [Example I-41, 4-[6-[2-Chloro-4-(6-methylpyrazin-2-yl)phenyl]-2-[(3-methyloxetan-3-yl)amino]-7-oxo-pyrido[2,3-d]pyrimidin-8-yl]butanamide] | 31 nM
8 | CNc1ncc2cc(-c3ccc(-c4cncc(C)n4)cc3Cl)c(=O)n(CCOC3CNC3)c2n1 [Example I-46, 8-[2-(azetidin-3-yloxy)ethyl]-6-[2-chloro-4-(6-methylpyrazin-2-yl)phenyl]-2-(methylamino)pyrido[2,3-d]pyrimidin-7-one] | 13.9 nM
9 | Cc1cncc(-c2ccc(-c3cc4cnc(NCC(F)F)nc4n(CCOC4CNC4)c3=O)c(Cl)c2)n1 [Example I-47, 8-[2-(azetidin-3-yloxy)ethyl]-6-[2-chloro-4-(6-methylpyrazin-2-yl)phenyl]-2-(2,2-difluoroethylamino)pyrido[2,3-d]pyrimidin-7-one] | 25.2 nM
10 | CCNc1ncc2cc(-c3ccc(-c4cncc(C)n4)cc3Cl)c(=O)n(CCCCC(N)=O)c2n1 [Example I-49, 5-[6-[2-Chloro-4-(6-methylpyrazin-2-yl)phenyl]-2-(ethylamino)-7-oxo-pyrido[2,3-d]pyrimidin-8-yl]pentanamide] | 75.3 nM
11 | Cc1cncc(-c2ccc(-c3cc4cnc(NC5COC5)nc4n(CCCCO)c3=O)c(Cl)c2)n1 [Example I-50, 6-[2-Chloro-4-(6-methylpyrazin-2-yl)phenyl]-8-(4-hydroxybutyl)-2-(oxetan-3-ylamino)pyrido[2,3-d]pyrimidin-7-one] | 45.6 nM
12 | CCNc1ncc2cc(-c3ccc(-c4cncc(C)n4)cc3Cl)c(=O)n(CCC3CCNC(=O)C3)c2n1 (centres unmarked) [Example I-53, 6-[2-chloro-4-(6-methylpyrazin-2-yl)phenyl]-2-(ethylamino)-8-[2-(2-oxo-4-piperidyl)ethyl]pyrido[2,3-d]pyrimidin-7-one] | 96.2 nM
13 | CCNc1ncc2cc(-c3ccc(-c4cncc(C)n4)cc3Cl)c(=O)n(CC3(O)CCNCC3)c2n1 [Example I-54, 6-(2-Chloro-4-(6-methylpyrazin-2-yl)phenyl)-2-(ethylamino)-8-((4-hydroxypiperidin-4-yl)methyl)pyrido[2,3-d]pyrimidin-7(8H)-one] | 107 nM
14 | Cc1cncc(-c2ccc(-c3cc4cnc(NC5COC5)nc4n(CCCC(N)=O)c3=O)c(Cl)c2)n1 [Example I-55, 4-[6-[2-Chloro-4-(6-methylpyrazin-2-yl)phenyl]-2-(oxetan-3-ylamino)-7-oxo-pyrido[2,3-d]pyrimidin-8-yl]butanamide] | 29.8 nM
15 | CCNc1ncc2cc(-c3ccc(-c4cncc(C)n4)cc3Cl)c(=O)n(CCC3CCNC3)c2n1 (centres unmarked) [Example I-57, 6-(2-Chloro-4-(6-methylpyrazin-2-yl)phenyl)-2-(ethylamino)-8-(2-(pyrrolidin-3-yl)ethyl)pyrido[2,3-d]pyrimidin-7(8H)-one] | 4.1 nM
16 | CCNc1ncc2cc(-c3ccc(-c4cncc(C)n4)cc3Cl)c(=O)n(C3COC4(CNC4)C3)c2n1 (centres unmarked) [Example I-58, 6-(2-Chloro-4-(6-methylpyrazin-2-yl)phenyl)-2-(ethylamino)-8-(5-oxa-2-azaspiro[3.4]octan-7-yl)pyrido[2,3-d]pyrimidin-7(8H)-one] | 71.1 nM

Row | SMILES | Ki
17 | CCNc1ncc2cc(-c3ccc(-c4cncc(C)n4)cc3Cl)c(=O)n(C3COC4(CCNCC4)C3)c2n1 (centres unmarked) [Example I-59, 6-(2-Chloro-4-(6-methylpyrazin-2-yl)phenyl)-2-(ethylamino)-8-(1-oxa-8-azaspiro[4.5]decan-3-yl)pyrido[2,3-d]pyrimidin-7(8H)-one] | 24.4 nM
18 | Cc1cccc(-c2ccc(-c3cc4cnc(NC(C)C)nc4n(CCOCCN)c3=O)c(Cl)c2)n1 [Example I-60] | 1.1 nM
19 | Cc1cccc(-c2ccc(-c3cc4cnc(NC5COC5)nc4n(CCOCCN)c3=O)c(Cl)c2)n1 [Example I-63, 8-[2-(2-Aminoethoxy)ethyl]-6-[2-chloro-4-(6-methyl-2-pyridyl)phenyl]-2-(oxetan-3-ylamino)pyrido[2,3-d]pyrimidin-7-one] | 0.3 nM
20 | CCNc1ncc2cc(-c3ccc(-c4cncc(C)n4)cc3Cl)c(=O)n(CC[C@@H]3[C@H]4CNC[C@@H]34)c2n1 [Example I-65, 8-(2-((1R,5S,6s)-3-Azabicyclo[3.1.0]hexan-6-yl)ethyl)-6-(2-chloro-4-(6-methylpyrazin-2-yl)phenyl)-2-(ethylamino)pyrido[2,3-d]pyrimidin-7(8H)-one] | 14.5 nM
21 | CCNc1ncc2cc(-c3ccc(-c4cccc(C)n4)cc3Cl)c(=O)n(CCN3CCNCC3)c2n1 [Example I-66, 6-(2-Chloro-4-(6-methylpyridin-2-yl)phenyl)-2-(ethylamino)-8-(2-(piperazin-1-yl)ethyl)pyrido[2,3-d]pyrimidin-7(8H)-one] | 0.9 nM
22 | Cc1cncc(-c2ccc(-c3cc4cnc(NC5COC5)nc4n(CCOCCO)c3=O)c(Cl)c2)n1 [Example I-67, 6-[2-Chloro-4-(6-methylpyrazin-2-yl)phenyl]-8-[2-(2-hydroxyethoxy)ethyl]-2-(oxetan-3-ylamino)pyrido[2,3-d]pyrimidin-7-one] | 77.8 nM
23 | Cc1cccc(-c2ccc(-c3cc4cnc(NC(C)C)nc4n(CCN4CCNCC4)c3=O)c(Cl)c2)n1 [Example I-68, 6-(2-Chloro-4-(6-methylpyridin-2-yl)phenyl)-2-(isopropylamino)-8-(2-(piperazin-1-yl)ethyl)pyrido[2,3-d]pyrimidin-7(8H)-one] | 1.6 nM
24 | CCNc1ncc2cc(-c3ccc(-c4cncc(C)n4)cc3Cl)c(=O)n(CCC(N)=O)c2n1 [Example I-69, 3-[6-[2-chloro-4-(6-methylpyrazin-2-yl)phenyl]-2-(ethylamino)-7-oxo-pyrido[2,3-d]pyrimidin-8-yl]propanamide] | 103 nM
25 | Cc1cccc(-c2ccc(-c3cc4cnc(NC5COC5)nc4n(CCCC(N)=O)c3=O)c(C)c2)n1 [Example I-71, 4-[6-[2-Methyl-4-(6-methyl-2-pyridyl)phenyl]-2-(oxetan-3-ylamino)-7-oxo-pyrido[2,3-d]pyrimidin-8-yl]butanamide] | 11.3 nM
26 | Cc1cccc(-c2ccc(-c3cc4cnc(N)nc4n(CCCN)c3=O)c(C)c2)n1 [Example I-72, 2-Amino-8-(3-aminopropyl)-6-[2-methyl-4-(6-methyl-2-pyridyl)phenyl]pyrido[2,3-d]pyrimidin-7-one] | 21.1 nM
27 | CCNc1ncc2cc(-c3ccc(-c4cccc(C)n4)cc3C)c(=O)n(CCCCO)c2n1 [Example I-73, 2-(Ethylamino)-8-(4-hydroxybutyl)-6-[2-methyl-4-(6-methyl-2-pyridyl)phenyl]pyrido[2,3-d]pyrimidin-7-one] | 18.9 nM
28 | CCNc1ncc2cc(-c3ccc(-c4cccc(C)n4)cc3C)c(=O)n(CCCC(=O)NC)c2n1 [Example I-74, 4-[2-(Ethylamino)-6-[2-methyl-4-(6-methyl-2-pyridyl)phenyl]-7-oxo-pyrido[2,3-d]pyrimidin-8-yl]-N-methyl-butanamide] | 15.5 nM
29 | CCNc1ncc2cc(-c3ccc(-c4cccc(C)n4)cc3C)c(=O)n(CCOCCN)c2n1 [Example I-76, 8-[2-(2-Aminoethoxy)ethyl]-2-(ethylamino)-6-[2-methyl-4-(6-methyl-2-pyridyl)phenyl]pyrido[2,3-d]pyrimidin-7-one] | 3.3 nM
30 | CCNc1ncc2cc(-c3ccc(-c4cc(C)cnn4)cc3Cl)c(=O)n(C[C@H]3CC[C@H](N)CC3)c2n1 [Example I-77, 8-(((1R,4R)-4-Aminocyclohexyl)methyl)-6-(2-chloro-4-(5-methylpyridazin-3-yl)phenyl)-2-(ethylamino)pyrido[2,3-d]pyrimidin-7(8H)-one] | 30.7 nM
31 | Cc1cccc(-c2ccc(-c3cc4cnc(NC(C)C)nc4n(CC(=O)N4CCNCC4)c3=O)c(C)c2)n1 [Example I-78, 2-(Isopropylamino)-6-(2-methyl-4-(6-methylpyridin-2-yl)phenyl)-8-(2-oxo-2-(piperazin-1-yl)ethyl)pyrido[2,3-d]pyrimidin-7(8H)-one] | 16 nM
32 | CNc1ncc2cc(-c3ccc(-c4cncc(C)n4)cc3Cl)c(=O)n(CC[C@@H](O)CO)c2n1 [Example I-80, 6-(2-Chloro-4-(6-methylpyrazin-2-yl)phenyl)-8-(3,4-dihydroxybutyl)-2-(methylamino)pyrido[2,3-d]pyrimidin-7(8H)-one] | 104 nM
